Here are results for 1 compound from US10519152B2, “Compounds and their use in treating cancer” (AstraZeneca AB, priority 2017, dated 2019).

Structures are written as SMILES.

The target of the assay is T1, Estrogen Receptor (ERα) in MCF-7 human ductal carcinoma breast cell line (Homo sapiens, UniProt P03372).
T1 construct: endogenous in cells; host or cells: MCF-7
T1 sequence (P03372 1-595): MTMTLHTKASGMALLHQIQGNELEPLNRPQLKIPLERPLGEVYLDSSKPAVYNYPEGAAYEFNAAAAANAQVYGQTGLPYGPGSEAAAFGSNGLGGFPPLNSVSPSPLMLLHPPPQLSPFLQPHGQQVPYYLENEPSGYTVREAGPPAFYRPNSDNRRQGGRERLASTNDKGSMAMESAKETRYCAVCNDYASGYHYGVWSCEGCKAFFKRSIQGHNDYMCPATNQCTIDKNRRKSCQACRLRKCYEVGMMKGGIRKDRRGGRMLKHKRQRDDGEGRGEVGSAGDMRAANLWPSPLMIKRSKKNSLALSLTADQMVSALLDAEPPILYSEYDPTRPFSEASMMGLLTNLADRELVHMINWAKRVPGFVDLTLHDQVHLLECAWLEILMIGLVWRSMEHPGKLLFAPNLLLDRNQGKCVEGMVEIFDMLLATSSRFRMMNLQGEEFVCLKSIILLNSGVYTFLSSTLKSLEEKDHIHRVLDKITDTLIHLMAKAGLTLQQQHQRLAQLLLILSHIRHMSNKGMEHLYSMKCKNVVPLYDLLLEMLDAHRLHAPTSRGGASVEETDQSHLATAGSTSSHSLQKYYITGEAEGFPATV
Kind of assay: MCF-7 ER degradation assay (cell based immuno-fluorescence). The following applies: MCF-7 cells. Put shortly:
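MCF-7 human ductal carcinoma breast cells were seeded at 3.75×10^4 cells per mL (40 μL per well) in 384 well plates with phenol red free DMEM containing 2 mM L-Glutamine and 5% (v/v) Charcoal/Dextran treated foetal calf serum. After overnight culture, compounds were acoustically dispensed, incubated 18-22 hours, then cells were formaldehyde-fixed and immunostained for ERα.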

As for `Cc1ncsc1-c1ccc(CNC(=O)[C@@H]2C[C@@H](O)CN2C(=O)[C@@H](NC(=O)COCCOCCCCCOc2cc(F)c([C@@H]3c4[nH]c5ccccc5c4C[C@@H](C)N3CC(C)(C)F)c(F)c2)C(C)(C)C)cc1` [Example 97, (2S,4R)-1-((S)-2-(2-(2-((5-(3,5-Difluoro-4-((1R,3R)-2-(2-fluoro-2-methylpropyl)-3-methyl-2,3,4,9-tetrahydro-1H-pyrido[3,4-b]indol-1-yl)phenoxy)pentyl)oxy)ethoxy)acetamido)-3,3-dimethylbutanoyl)-4-hydroxy-N-(4-(4-methylthiazol-5-yl)benzyl)pyrrolidine-2-carboxamide], for the setting “0.3 μM, ER degradation by fulvestrant at 0.3 μM is defined as 100%”, the “ER degradation ≥ 90% at 0.3 μM” value was “••”. Besides, the DC50 (18-22 hours incubation, 50% reduction of ERα expression, single experiment or average of two or more, read-out: MCF-7 ER degradation IC50) was determined as 0.8 nM.
